Patent US10610524B2, “Cellular hydration compositions” (Eastpond Laboratories Limited, priority 2010, dated 2020)

What was measured:
C. elegans nematodes = experiment: Lifespan of C. elegans in hydration modified water media; format: in vivo; conditions: for effect on C. elegans survival: added to culture media, result in words; for Animals alive: USA I water
Procedure: C. elegans nematodes were grown in petri-type dishes containing normal nutrient liquid media prepared alternatively with USA I water (described in Example 2) lacking any further additive component (control) or the same water supplemented with a parent α-, β-, or γ-cyclodextrin, and/or a bioactive agent, as an active component of cellular hydration. Fifty±3 worms were transferred to each dish. Each condition was repeated in triplicate. Experiments were repeated for USA II and BP I waters described in Example 2. A. Addition of parent α-, β- and γ-cyclodextrins. B. Addition of L-arginine and nicotinamide. C. Addition of inclusion complexes of cyclodextrins with L-arginine and nicotinamide.

[1] = system: Wheat seeds (Triticum aestivum); experiment: Wheat seed germination kinetics in additive-modified water; format: in vivo; conditions: additive 0.5% w/v in USA I water
Procedure: Wheat seeds (Triticum aestivum) were germinated using USA I, USA II, and BP I waters described for Example 2. Germination rate using un-supplemented (control) water was compared to that with the same water variously supplemented with a cyclodextrin component, and/or a bioactive agent, as an active component of cellular hydration. For each condition, ten seeds were placed in continuous water contact in a Petri-type dish kept at 25 C in 12 hr light/dark cycles. Photometric images were recorded on days 1 to 6 after seeding. The percentage of seeds germinated was calculated and compared as a function of time and of the applied additive concentrations.
Water samples for seed germination were used alone with no additive, or containing cyclodextrins, or containing clathrate inclusion complexes of cyclodextrin with L-arginine or with nicotinamide (both obtained from Sigma Chemical Co.; St. Louis, Mo.), or with L-carnitine (from Lonza AG; Switzerland). […] Additive solutions were prepared fresh on the day of germination start.
Parent cyclodextrins α-cyclodextrin (ACD), β-cyclodextrin (BCD), and γ-cyclodextrin (GCD), were obtained from Wacker Chemie (Munich, Germany). The following derivatized cyclodextrins were obtained from Cyclolab Ltd. (Budapest, Hungary): hydroxypropylated-beta-cyclodextrin (DS˜3)(HPBCD), carboxymethylated-β-cyclodextrin (DS˜3.5)(CMBCD), 2-hydroxy-3-N,N,N-trimethylamino)propyl-β-cyclodextrin chloride (DS˜3.6)(QABCD).
Germination kinetics in control and additive-modified water under identical conditions were quantified as the percentage of the seeds having a sprout. Each determination consisted of 100 seeds for each parameter. Results are reported in Table 1, below, and in FIGS. 11-13.

[2] = NIR spectroscopy of water bonding with cyclodextrin additives; format: physicochemical
Procedure: Hydration bond energies in pure waters and solutions of the same waters containing cyclodextrin compounds were assayed using IR spectroscopy in the near and middle infrared ranges. To record linear signals throughout an entire wavelength range, attenuation from water absorbance was minimized with a short optical length cuvette.
NIR range spectra were registered on a FOSS NIR Systems, Inc. 6500 spectrometer and Sample Transport Module (STM) using a 1 mm-es cuvette. […]
Three samples of water were used in the present study. A first water sample (USA I) was obtained from the U.S. and was purified by reverse osmosis, carbon filtration, ultraviolet light exposure, membrane filtration to 0.2 micron absolute, and ozonation. A second water sample (USA II) was also obtained from the U.S. A third water sample (BP I) was obtained from Budapest, Hungary.
The following cyclodextrins were added to the above described water samples at a concentration range of 0.1%-5% w/v: • α-cyclodextrin (αCD also denoted as ACD), Lot. No. CYL-2322. • β-cyclodextrin (βCD also denoted as BCD). Lot. No. CYL-2518/2. • γ-cyclodextrin (γCD also denoted as GCD), Lot. No. CYL-2323. • 2-hydroxypropyl-β-cyclodextrin (HPβCD, HPBCD), DS*=3.5, Lot. No. CYL-2232. • 2-hydroxypropyl-γ-cyclodextrin (HPCD, HPGCD), DS*=4.8, Lot. No. CYL-2258. • carboxymethyl-β-cyclodextrin (CMBCD), Lot. No. CYL-2576. • quaternary-ammonium-β-cyclodextrin (QABCD).

[3] = life span 10 days, parent cyclodextrin 0.1% w/v in media, Table 3
[4] = life span 15 days, parent cyclodextrin 0.1% w/v in media, Table 3
[5] = life span 18 days, parent cyclodextrin 0.1% w/v in media, Table 3
[6] = life span 10 days, derivatized cyclodextrin 0.1% w/v in media, Table 4
[7] = life span 15 days, derivatized cyclodextrin 0.1% w/v in media, Table 4
[8] = life span 18 days, derivatized cyclodextrin 0.1% w/v in media, Table 4
[9] = wavelength region 900-1200 nm, FIG. 7

water-bond interactions, second-derivative NIR spectra ([2]; 1200-1500 nm, FIG. 8)	water-bond interactions, second-derivative NIR spectra ([2]; 1620-1710 nm, FIG. 9)	water-bond interactions, second-derivative NIR spectra ([2]; 2170-2370 nm, FIG. 10)	water-bond interactions, second-derivative NIR spectra [2, 9]	Compound	Animals alive (C. elegans nematodes; [3])	Animals alive (C. elegans nematodes; [4])	Animals alive (C. elegans nematodes; [5])	Animals alive (C. elegans nematodes; [6])	Animals alive (C. elegans nematodes; [7])	Animals alive (C. elegans nematodes; [8])	other results
–	–	–	–	NC(=O)c1cccnc1 [nicotinamide, reference compound]	–	–	–	–	–	–	effect on C. elegans survival (C. elegans nematodes): little effect; wheat seed germination rate ([1]; day 0, Table 2): 0 percentage of the seeds; wheat seed germination rate ([1]; day 1, Table 2): 0 percentage of the seeds; wheat seed germination rate ([1]; day 2, Table 2): 4 percentage of the seeds; wheat seed germination rate ([1]; day 3, Table 2): 10 percentage of the seeds; wheat seed germination rate ([1]; day 4, Table 2): 60 percentage of the seeds
–	–	–	–	N=C(N)NCCC[C@H](N)C(=O)O [L-Arg, L-arginine, reference compound]	–	–	–	–	–	–	effect on C. elegans survival (C. elegans nematodes): little effect; wheat seed germination rate ([1]; day 0, Table 1): 0 percentage of total seeds; wheat seed germination rate ([1]; day 1, Table 1): 0 percentage of total seeds; wheat seed germination rate ([1]; day 2, Table 1): 30 percentage of total seeds; wheat seed germination rate ([1]; day 3, Table 1): 45 percentage of total seeds; wheat seed germination rate ([1]; day 4, Table 1): 60 percentage of total seeds
–	–	–	–	OC[C@H]1O[C@@H]2O[C@H]3[C@H](O)[C@@H](O)[C@@H](O[C@H]4[C@H](O)[C@@H](O)[C@@H](O[C@H]5[C@H](O)[C@@H](O)[C@@H](O[C@H]6[C@H](O)[C@@H](O)[C@@H](O[C@H]7[C@H](O)[C@@H](O)[C@@H](O[C@H]8[C@H](O)[C@@H](O)[C@@H](O[C@H]1[C@H](O)[C@H]2O)O[C@@H]8CO)O[C@@H]7CO)O[C@@H]6CO)O[C@@H]5CO)O[C@@H]4CO)O[C@@H]3CO [β-Cyclodextrin, β-cyclodextrin]	100 % of initial	18 % of initial	0 % of initial	–	–	–	–
further significantly modified	significantly modified	significantly modified	further significantly modified	carboxymethyl-β-cyclodextrin	–	–	–	94 % of initial	11 % of initial	0 % of initial	–
significantly modified	significantly modified	significantly modified	further significantly modified	CC(O)COC[C@H]1O[C@@H]2O[C@H]3[C@H](O)[C@@H](O)[C@@H](O[C@H]4[C@H](O)[C@@H](O)[C@@H](O[C@H]5[C@H](O)[C@@H](O)[C@@H](O[C@H]6[C@H](O)[C@@H](O)[C@@H](O[C@H]7[C@H](O)[C@@H](O)[C@@H](O[C@H]8[C@H](O)[C@@H](O)[C@@H](O[C@H]1[C@H](O)[C@H]2O)O[C@@H]8COCC(C)O)O[C@@H]7COCC(C)O)O[C@@H]6COCC(C)O)O[C@@H]5COCC(C)O)O[C@@H]4COCC(C)O)O[C@@H]3COCC(C)O (stereo partly drawn) [HP-β-Cyclodextrin, 2-hydroxypropyl-β-cyclodextrin]	–	–	–	96 % of initial	17 % of initial	0 % of initial	–
–	–	–	–	OC[C@H]1O[C@@H]2O[C@H]3[C@H](O)[C@@H](O)[C@@H](O[C@H]4[C@H](O)[C@@H](O)[C@@H](O[C@H]5[C@H](O)[C@@H](O)[C@@H](O[C@H]6[C@H](O)[C@@H](O)[C@@H](O[C@H]7[C@H](O)[C@@H](O)[C@@H](O[C@H]8[C@H](O)[C@@H](O)[C@@H](O[C@H]9[C@H](O)[C@@H](O)[C@@H](O[C@H]1[C@H](O)[C@H]2O)O[C@@H]9CO)O[C@@H]8CO)O[C@@H]7CO)O[C@@H]6CO)O[C@@H]5CO)O[C@@H]4CO)O[C@@H]3CO [γ-Cyclodextrin, γ-cyclodextrin]	100 % of initial	13 % of initial	2 % of initial	–	–	–	–
significantly modified	significantly modified	further significantly modified	significantly modified	2-hydroxy-3-N,N,N-trimethylamino)propyl-β-cyclodextrin chloride [Quaternaryammonium-β-Cyclodextrin]	–	–	–	98 % of initial	13 % of initial	2 % of initial	modified micro-structure of hydrogen bonds in bulk water (spectral changes), ranking of effect ([2]; among cyclodextrin-treated water samples, FIGS. 9 and 10): largest
–	–	–	–	OC[C@H]1O[C@@H]2O[C@H]3[C@H](O)[C@@H](O)[C@@H](O[C@H]4[C@H](O)[C@@H](O)[C@@H](O[C@H]5[C@H](O)[C@@H](O)[C@@H](O[C@H]6[C@H](O)[C@@H](O)[C@@H](O[C@H]7[C@H](O)[C@@H](O)[C@@H](O[C@H]1[C@H](O)[C@H]2O)O[C@@H]7CO)O[C@@H]6CO)O[C@@H]5CO)O[C@@H]4CO)O[C@@H]3CO [α-Cyclodextrin, α-cyclodextrin]	100 % of initial	20 % of initial	2 % of initial	–	–	–	wheat seed germination rate ([1]; day 0, Table 1): 0 percentage of total seeds; wheat seed germination rate ([1]; day 0, Table 2): 0 percentage of the seeds; wheat seed germination rate ([1]; day 1, Table 1): 0 percentage of total seeds; wheat seed germination rate ([1]; day 1, Table 2): 11 percentage of the seeds; wheat seed germination rate ([1]; day 2, Table 1): 48 percentage of total seeds; wheat seed germination rate ([1]; day 2, Table 2): 18 percentage of the seeds; wheat seed germination rate ([1]; day 3, Table 1): 70 percentage of total seeds; wheat seed germination rate ([1]; day 3, Table 2): 68 percentage of the seeds; wheat seed germination rate ([1]; day 4, Table 1): 85 percentage of total seeds; wheat seed germination rate ([1]; day 4, Table 2): 92 percentage of the seeds
